Entries after “also recorded” stand apart in the source; their conditions may differ. Structures can show the parent of a compound that is named as a salt. Peptide text beside a SMILES is read from it. * marks the point of attachment. Cbz = O=C(OCc1ccccc1)*
Legend:
[1] = tested on: intracellularly accumulated Aβ42; experiment: Degradation of intracellularly accumulated Aβ42 in SH-SY5Y cells (immunoblot); format: cell-based
Text: (§1) In order to investigate a compound that inhibits intracellular aggregation and accumulation of amyloid β proteins based on activation of intracellular proteasome, a system was constructed for assaying an activity to degrade intracellularly accumulated Aβ. Neuroblastoma cells (SH-SY5Y; ATCC) were used as culture cells and Aβ40 was artificially accumulated within the cells. […] If the activity to degrade Aβ40 was high, the activity to degrade Aβ42 was analogously thought to be high. For introducing amyloid β proteins within cells, hypertonicity influx method was used. Briefly, using Influx™ Pinocytic Cell-loading Reagent (Molecular Probe), SH-SY5Y cells (1×10^6 cells) were exposed to Aβ40 (about 200 μg; ANASPEC) with hypertonicity for 10 minutes/hypotonicity for 2 minutes so that Aβ40 peptides may be incorporated into cells via pinocytosis and spread pervasively in cytoplasm. After accumulation of Aβ40 within cells, degradation of Aβ with lapse of time was observed. […] These reagents were added to culture two hours before Aβ40 accumulation to investigate their activity.
(§2) Zero minute and thirty minutes after Aβ40 treatment, cells were collected and subjected to immunoblot. Immunoblot was performed as commonly known in the art wherein soluble proteins were extracted from cells with 2% SDS, run on Tris/Tricine gel SDS-PAGE, transblotted to PVDF membrane (Semi-dry method) and detected with an anti-Aβ antibody (4G8, Signet Pathology Systems). Quantitative evaluation was done by quantitatively evaluating the immune reaction of amyloid β proteins. Quantitative evaluation was performed by taking in the photos with Photoshop and measuring density of bands with NIH Image. […] Thus, it was considered that intracellularly accumulated Aβ40 were degraded by proteasome and that APO may enhance the degrading process.
As described in Example 1(1) and (2), degradation of intracellularly accumulated Aβ was assayed for Aβ42 provided that cells were collected 0 minute and 90 minutes after Aβ42 treatment and subjected to immunoblot.

[2] = tested on: intracellularly accumulated Aβ40; experiment: Degradation of intracellularly accumulated Aβ40 in SH-SY5Y cells (immunoblot, confocal microscopy); format: cell-based; conditions: for degradation of intracellularly accumulated Aβ40 after 30 minutes: reagent added 2 hours before Aβ40 accumulation, immunoblot with 4G8
Text: as §1, §2
Aβ40 was incorporated into cells via pinocytosis as in (1) above.

3×Tg mouse [3] = experiment: Preventive effect to onset of AD, Morris water maze test in homozygous 3×Tg mice; format: in vivo; conditions: weekly 5 mg/kg from 3 months old up till 6 months old, hydrochloride
Protocol: For investigating whether APO administration may prevent onset of AD, the effect of weekly administration of 5 mg/kg of APO before onset was studied. The recognition function and the pathological change in 3×Tg mice may widely vary from individual to individual and thus still much more data would be necessary for obtaining a definite conclusion.

[4] = tested on: primary neurons from mouse fetus; experiment: Protective effect in mouse primary neurons (cell survival, beta-tubulin immunostaining); format: cell-based
Protocol: Primary neurons were taken from the brain of fetal mouse of 15 days old, separated by treatment with 0.03% trypsin and cultured in Neurobasal-A+B27 serum-free medium (Gibco). After stabilization by culture for about a week, the reagents were added and a rate of cell survival was measured.
Further, the above mouse primary neurons were immunostained with an antibody to beta-tubulin, a cytoskeletal protein of the axon and a network of the neurite was observed (FIG. 8).

3×Tg mouse [5] = experiment: Morris water maze test in heterozygous 3×Tg mice; format: in vivo
Protocol: 3×Tg mouse is a model mouse of Alzheimer disease (AD) developed by Oddo and LaFerla et al. at University of California, Irvine. It is a mouse having three potent causes of disease wherein a gene of an amyloid precursor protein (APP) with KM670/671NL mutation, which is a gene causative of Swedish familial AD, and a gene of a tau protein (Tau) with P301L mutation, which is one of genes causative of familial frontotemporal dementia (FTD), are incorporated into a knock-in mouse of presenilin-1 (PS1) gene with M146V mutation causative of familial AD. […] It is also reported that the memory function of 3×Tg mouse is recovered when amyloid β proteins accumulated within neurons are decreased but defects in memory relapse if amyloid β proteins become accumulated (Billings L M et al., Neuron 45: 675-688, 2005). Thus, 3×Tg mouse is a model mouse of disease highly suitable for investigating efficacy of a medicament which targets intracellularly accumulated amyloid β proteins.
For investigating efficacy of apomorphine (APO) hydrochloride administered in vivo, APO was subcutaneously injected to 3×Tg. APO was purchased from Sigma Co. To heterozygous 3×Tg (6 month old; 4 mice in each group) generated from crossbreeding of a normal mouse and a Tg mouse, each 5 mg/kg of saline or APO was subcutaneously injected weekly for 4 weeks. The animals underwent analysis by Morris water maze test to evaluate the capacity of space memory before injection and after completion of four injections.
For quantitatively evaluating the capacity of space memory relating to the memory function of the hippocampus, Morris water maze test was performed. An analytical instrument used was DV-Track Video Tracking System (Muromachi Kikai Co., Ltd.). For Morris water maze, a round-shaped pool with a diameter of 1 m is prepared and a transparent goal stand is set in an arbitrary position of the pool. The animals undergo swimming training repeatedly by starting at an arbitrary position for reaching the goal stand (FIG. 9, left panel). In case that the animals could not reach the goal stand within 60 seconds, the test is discontinued and the animals are put on the goal stand for them to memorize the position. This training is repeated four times a day for three consecutive days and as a consequence the animals come to memorize the position of the goal stand (FIG. 9, right panel). Forty eight hours after completion of learning with time for reaching the goal stand being 15 seconds or less, the animals were let to swim in the pool without the goal stand and three indexes for memory were: time lag (s) in reaching the position where the goal stand was originally placed, a frequency (n) of crossing the position as seeking for the goal stand, and residential time (%) within ¼ block of the position where the goal stand was originally placed (48-hour probe test).

SH-SY5Y cells = experiment: Cell death induced by hydrogen peroxide in SH-SY5Y cells (cell survival); format: cell-based; conditions: for rate of cell survival: hydrogen peroxide
Protocol: A cell death inhibitory activity of apomorphine hydrochloride to cell death induced by hydrogen peroxide was studied. Hydrogen peroxide treatment was performed by adding an appropriate amount (0 mM, 1 mM, and 3 mM) of hydrogen peroxide to normal culture medium for SH-SY5Y cells supplemented with 10% serum and by investigating cell survival after 24 hours. The cells were fixed with methanol/acetone (50%/50%) for 10 minutes so that the conditions of surviving cells could easily be observed and then subjected to immunostaining with an anti-APP C-terminal antibody (Sigma-Aldrich) using Universal Kit (DAKO). As a result, cell death was induced by hydrogen peroxide (FIG. 3, upper panels). Then, the cells were treated with 10 μM APO together with 0 mM, 1 mM, and 3 mM of hydrogen peroxide.
(§3) Further, in order to study p53 level and a rate of cell survival in cell damage induced by hydrogen peroxide, p53 Western blot analysis and survival rate assay using Cell Titer-Blue Assay Kit (Promega) were performed. Hydrogen peroxide treatment was done by adding an appropriate amount (0 mM, 1 mM, and 3 mM) of hydrogen peroxide to normal culture medium for SH-SY5Y cells supplemented with 10% serum as described above. After 24 hours, the increased p53 level by addition of hydrogen peroxide was inhibited by addition of APO (FIG. 4A). A rate of cell survival was also recovered by addition of APO.

p53 = p53 Western blot analysis in hydrogen peroxide treated SH-SY5Y cells; format: cell-based; conditions: 0, 1, 3 mM hydrogen peroxide, after 24 hours
Protocol: as §3

proteasome = experiment: Proteasome activity in SH-SY5Y cells (20S Proteasome Assay Kit, Suc-LLVY-AMC); format: cell-based
Protocol: As described in Example 2(1) and (2), a change in the protease activity in SH-SY5Y cells by addition of APO was studied. Measurement of the protease activity was conducted by calculating a relative specific activity by measuring fluorescence generated from degradation of a specific substrate (Suc-LLVY-AMC) using 20S Proteasome Assay Kit (BostonBiochem). Comparison between two groups was done by Student t-test.

3×Tg mouse [6] = experiment: Immunostaining of brain slices of 3×Tg mice (4G8, AT8); format: in vivo
Text: In 3×Tg mouse, it is observed that defects in the recognition function and intracellularly accumulated amyloid β proteins are correlated to each other. For evaluating amyloid β proteins accumulated within neurons, 3×Tg mice used in Example 6 were sacrificed for pathological analysis. Immunostaining was done with an antibody specific to an amyloid β protein and an antibody specific to a phosphorylated tau protein, which is a major component of neurofibrillary tangle in the AD brain. After completion of Morris water maze test after APO injection, the mice were subjected to perfusion fixation with 4% paraformaldehyde. Then, the whole brain was taken out, fixed with 4% paraformaldehyde and was left to stand in 15% sucrose for 48 hours and in 30% sucrose for 48 hours at 4° C. A slice with 20 μm thickness cut from the forehead including the hippocampus was prepared. Immunostaining was performed with 4G8 (Signet Laboratories, 1:1000) for an anti-amyloid β protein antibody and AT8 (Innogenetics, 1:200) for an anti-phosphorylated tau protein antibody using mouse to mouse immunostaining kit (Zymed) for DAB staining.

What does the source list for `CC(C)C[C@@H](C=O)NC(=O)[C@H](CC(C)C)NC(=O)[C@H](CC(C)C)NC(=O)OCc1ccccc1` [MG132] (Cbz-Leu-Leu-Leu-aldehyde)?
degradation of intracellularly accumulated Aβ42 after 90 minutes [1]: degradation was inhibited; degradation of intracellularly accumulated Aβ40 after 30 minutes [2]: degradation was inhibited

With “Aβ42: amyloid β protein of 42 residues; printed in b62 as the added agent, probably a misprint for APO” as the compound, how does the “degradation of intracellularly accumulated Aβ42 inhibited by MG132, recovery” value ([1]; with MG132, 90 minutes) read?
The value was “the degradation was recovered”.

Which “capacity of memory acquisition in swimming training (time lag in reaching the goal stand)” value (3×Tg mouse [3]) does the source give for `CN1CCc2cccc3c2[C@H]1Cc1ccc(O)c(O)c1-3` [APO, apomorphine hydrochloride] here?
The value was “comparable to Non-Tg mice; also recorded: evidently superior to that of 3×Tg mice with no treatment; also recorded: comparable to non-transgenic mice”.

And the “network of the neurite (beta-tubulin immunostaining)” value ([4]; mouse primary neurons)?
Its value is “protection and maintenance of the network”.

What about the “apoptosis inhibitory activity for oxidative stress (rate of cell survival)” value ([4]; primary neurons from fetal mouse of 15 days old) of the same compound?
Its value is “also seen in primary neurons from mouse fetus”.

What about the “concentration at which the effect of APO was at the peak” value ([4]; primary neurons from mouse fetus, rate of cell survival, thereafter declined) of the same compound?
The value was 10 µM.

And the “capacity of memory for the goal stand position (loci of swimming), 48-hour probe test” value (3×Tg mouse [5]; 3×Tg cases (2 mice) in which APO injection was efficacious, hydrochloride)?
The value was “the memory retention of the goal stand position was improved; also recorded: markedly improved”.

And the “capacity of learning after 3-day consecutive training (time for reaching the goal stand)” value (3×Tg mouse [5]; heterozygous 3×Tg, 6 month old, 5 mg/kg subcutaneous weekly for 4 weeks, n=4, hydrochloride, 5 mg/kg)?
Its value is “a tendency of improvement in the capacity of memory and learning; also recorded: slightly higher capacity of learning after treatment”.

And the “frequency of crossing the goal stand, 48-hour probe test” value (3×Tg mouse [5]; heterozygous 3×Tg, 5 mg/kg s.c. weekly for 4 weeks, after vs before injection, p=0.03)?
Its value is “increase in frequency of crossing the goal stand”.

What about the “residential time (%) within ¼ block of the goal stand, 48-hour probe test” value (3×Tg mouse [5]; heterozygous 3×Tg, 5 mg/kg s.c. weekly for 4 weeks, after vs before injection, p=0.04) of the same compound?
Its value is “increase in residential time”.

And the “time lag in reaching the goal stand, 48-hour probe test” value (3×Tg mouse [5]; heterozygous 3×Tg, 5 mg/kg s.c. weekly for 4 weeks, after vs before injection, p=0.05)?
Its value is “shortening of time lag in reaching the goal stand”.

And the “degradation of intracellularly accumulated Aβ42 after 90 minutes” value [1]?
Its value is “degradation after 90 minutes was enhanced”.

And the “cell survival (number of surviving cells and morphological features)” value (SH-SY5Y cells; 10 μM APO with 0, 1, 3 mM hydrogen peroxide, 24 hours, immunostaining)?
Its value is “evident enhancement of cell survival”.

What about the “rate of cell survival” value (SH-SY5Y cells; 10 μM APO, Cell Titer-Blue, p<0.0001) of the same compound?
Its value is “extremely improved”.

And the “rate of cell survival” value (SH-SY5Y cells; 24 hours, Cell Titer-Blue Assay Kit)?
The value was “recovered”.

What about the “change in intracellular Aβ40 with lapse of time” value ([2]; 10 μM APO added two hours before) of the same compound?
The value was “degraded with lapse of time”.

And the “degradation of intracellularly accumulated Aβ40 after 30 minutes” value [2]?
The value was “degradation after 30 minutes was enhanced”.

What about the “degradation of intracellularly accumulated Aβ40 inhibited by MG132, effect of adding APO” value ([2]; with MG132, 30 minutes, immunoblot) of the same compound?
Its value is “the degradation was recovered”.

And the “p53 level increased by hydrogen peroxide” value (p53)?
The value was “inhibited”.

And the “proteasome activity (relative specific activity)” value (proteasome; APO alone, hydrochloride)?
The value was “enhanced the proteasome activity; also recorded: increased”.

And the “decreased proteasome activity at addition of oxidative stress” value (proteasome; oxidative stress plus APO)?
Its value is “recovered”.

And the “fall-off of massive neurons” value (3×Tg mouse [6]; 3×Tg mice at the stage of 6-month, after administration)?
The value was “not observed”.

What about the “intraneuronal accumulation of amyloid β proteins (4G8 immunostaining)” value (3×Tg mouse [6]; cerebral cortex and hippocampus CA1 region, 3×Tg mice of Example 6, vs saline, hydrochloride) of the same compound?
The value was “evidently inhibited”.

What about the “intraneuronal accumulation of phosphorylated tau proteins (AT8 immunostaining)” value (3×Tg mouse [6]; cerebral cortex and hippocampus, 3×Tg mice of Example 6, vs saline, hydrochloride) of the same compound?
The value was “the accumulation was inhibited”.

Reference: patent US20100324079A1, “Medicament for prophylaxis and treatment of Alzheimer disease” (priority 2006, published 2010)
